From ChEMBL document CHEMBL1201862, “PubChem BioAssay data set” (2004)
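Exposure lasted 48 hours, with cells grown in 96-well plates and compounds tested at five concentrations. The concentration for 50% growth inhibition is given as GI50.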 Active and inactive are the calls of the source. No stated cut-off is given here; in the data, active = GI50 up to about 1.1 µM and inactive = higher.

Tests used:
Experiment in all cases: NCI tumour cell line growth inhibition, 48 h
SK-OV-3 = test system: SK-OV-3
ACHN = test system: ACHN
KM12 = test system: KM12
OVCAR-8 = test system: OVCAR-8
CCRF-CEM = test system: CCRF-CEM
A549 = test system: A549
SW-620 = test system: SW-620
SN12C = test system: SN12C
T47D = test system: T47D
DU-145 = test system: DU-145
786-0 = test system: 786-0
HOP-92 = test system: HOP-92
HCT-116 = test system: HCT-116
MCF7 = test system: MCF7
COLO 205 = test system: COLO 205
OVCAR-4 = test system: OVCAR-4
SF-539 = test system: SF-539
OVCAR-3 = test system: OVCAR-3
U-251 = test system: U-251
HCC 2998 = test system: HCC 2998

Measured: GI50

CC1(c2nc3cc(Cl)c(Cl)cc3[nH]2)CCC(CO)C(C)(C)O1 (stereo not given)
inactive: SK-OV-3 94.2 µM | ACHN 30.3 µM | KM12 15.1 µM | OVCAR-8 19.5 µM | CCRF-CEM 27.9 µM | A549 33.6 µM | SW-620 30.9 µM | SN12C 32 µM | T47D 32.3 µM | DU-145 38 µM | 786-0 42 µM | HOP-92 44 µM | HCT-116 31.4 µM | MCF7 35.9 µM | COLO 205 25.1 µM | OVCAR-4 25.1 µM | SF-539 25.4 µM | OVCAR-3 29.5 µM | U-251 38.6 µM | HCC 2998 32.2 µM

Cn1/c(=N\N=C2\C=C3CCCCC3(C)CC2)sc2ccccc21 (stereo not given)
inactive: SK-OV-3 > 100 µM | ACHN > 100 µM | KM12 > 100 µM | OVCAR-8 > 100 µM | CCRF-CEM 55.2 µM | A549 > 100 µM | SW-620 > 100 µM | SN12C > 100 µM | T47D > 100 µM | DU-145 > 100 µM | 786-0 > 100 µM | HOP-92 > 100 µM | HCT-116 > 100 µM | MCF7 > 100 µM | COLO 205 > 100 µM | OVCAR-4 > 100 µM | SF-539 > 100 µM | OVCAR-3 > 100 µM | U-251 > 100 µM | HCC 2998 > 100 µM

COc1ccc(Br)c2c1CC(C(=O)O)CC2 (stereo not given)
inactive: SK-OV-3 > 100 µM | ACHN > 100 µM | KM12 > 100 µM | OVCAR-8 > 100 µM | CCRF-CEM > 100 µM | A549 > 100 µM | SW-620 > 100 µM | SN12C > 100 µM | T47D > 100 µM | DU-145 > 100 µM | 786-0 > 100 µM | HOP-92 > 78.5 µM | HCT-116 > 100 µM | MCF7 > 100 µM | COLO 205 > 100 µM | OVCAR-4 > 100 µM | SF-539 > 100 µM | OVCAR-3 > 100 µM | U-251 > 100 µM | HCC 2998 > 100 µM

O=C1OC[C@@H]2[C@@H](O)CCCCCN12
inactive: SK-OV-3 > 100 µM | ACHN > 100 µM | KM12 > 100 µM | OVCAR-8 > 100 µM | CCRF-CEM > 100 µM | A549 > 100 µM | SW-620 > 100 µM | SN12C > 100 µM | T47D > 100 µM | DU-145 > 100 µM | 786-0 > 10 µM | HOP-92 > 100 µM | HCT-116 > 100 µM | MCF7 > 100 µM | COLO 205 > 100 µM | OVCAR-4 > 100 µM | SF-539 > 100 µM | OVCAR-3 > 100 µM | U-251 > 100 µM | HCC 2998 > 100 µM

N#Cc1ccc(Oc2nc3ccc(C(F)(F)F)cc3nc2-c2ccccc2)cc1
inactive: SK-OV-3 12.5 µM | ACHN 15.1 µM | KM12 20.5 µM | OVCAR-8 14.9 µM | CCRF-CEM 20.4 µM | A549 16.7 µM | SW-620 21.3 µM | SN12C 20.6 µM | T47D 16.7 µM | DU-145 17.8 µM | 786-0 17.1 µM | HOP-92 12.6 µM | HCT-116 15.3 µM | MCF7 20.4 µM | COLO 205 21.5 µM | OVCAR-4 16.2 µM | SF-539 29.8 µM | OVCAR-3 21.8 µM | U-251 17.2 µM | HCC 2998 17 µM
